Assay results taken from patent publication US10874687B1 (Atea Pharmaceuticals, Inc., priority 2020, dated 2020).
Where “and” joins values, the source holds several entries; their conditions need not be identical. Equal values may be shown once. Read-outs that look alike come from different tables or passages of the source. Marks after values point to notes of the source that are not given here.

What was measured:
[1] = tested on: human bronchial epithelial cells
[2] = tested on: human nasal epithelial cells
[3] = Prediction of human tissue levels of triphosphate from monkey tissue levels
Protocol: Based on the ratio (7.0) of human to monkey concentrations of triphosphate Compound 1-6 as assessed by its in vitro formation in primary hepatocytes, the predicted human tissue level was determined.

[4] = tested on: human bronchial epithelial cells; test: Triphosphate levels in human bronchial epithelial cells after 8 h exposure and washout; conditions: for Mean Intracellular Compound 1-6 Concentration: bronchial cells, 10 μM Compound 1A for 8 h
[5] = Lung, kidney and liver tissue levels in non-human primates after oral Compound 2A; assay type: in vivo, cynomolgus monkeys; conditions: for half-life: after oral Compound 2A 30 mg/kg BID for 3 days; for trough (12 h) tissue level: 12 hours after the last dose of Compound 2A
Protocol: (This corresponds to 55 ng/g (lung), 57 ng/g (kidney), and 43 ng/g (liver)). […] Plasma tough level of Compound 1-7, the surrogate for Compound 1-6 in plasma, was 39 ng/mL.

[6] = tested on: human nasal epithelial cells; test: Triphosphate levels in human nasal epithelial cells after 8 h exposure and washout
human hepatocytes = test: Triphosphate levels in human hepatocytes; assay type: in vitro ADME; conditions: for Mean Intracellular Compound 1-6 Concentration: human hepatocytes, 10 μM Compound 1A
monkey hepatocytes = test: Triphosphate levels in monkey hepatocytes; assay type: in vitro ADME; conditions: 10 μM Compound 1A
[7] = Plasma PK of metabolites in non-human primates after oral Compound 2A; conditions: cynomolgus, cynomolgus monkey, in vivo, 30 mg/kg
in vivo = conditions: cynomolgus, cynomolgus monkey, po
HCoV-229E [8] = test: Protection of BHK-21 cells from virus-induced cytopathogenicity (MTT); assay type: cell-based, human coronavirus; conditions: Human coronavirus 229E, read-out: EC50
Protocol: (§1) After a 3-day incubation at 37° C. cell viability was determined by the MTT method as described by Pauwels et al. (J. Virol. Methods 1988, 20, 309-321).
In an initial screening, BHK-21 cells acutely infected with a seasonal human alpha coronavirus, HCoV-229E, were exposed to serial dilutions of Compound 1A. […] No toxicity was detected from either drug.
(§2) BHK-21 cells: Test compounds were dissolved in DMSO at 100 mM and then diluted in Minimum Essential Medium with Earle's salts (MEM-E) containing 1 mM sodium pyruvate and 25 μg/mL kanamycin, supplemented with 10% FBS (growth medium) to final concentrations of 100, 20, 4 and 0.8 μM (two 24-well replica plates each). After BHK-21 cells were grown to confluency in 96-well plates, growth medium was replaced with fresh maintenance medium (growth medium with 1% inactivated FBS in place of 10% FBS) containing serially diluted test compound and HCoV-229E at a multiplicity of infection (MOI) of 0.01. Uninfected cells in the presence of serially diluted compound were used to assess the cytotoxicity of compounds. After a 3-day incubation at 37° C. in a humidified 5% CO2 atmosphere, cell viability was determined by the MTT method (Pauwels, R et al. J. Virol. Methods 20(4):309-321 (1988)).

mock infected BHK cells = test: Cytotoxicity in mock infected BHK-21 cells (MTT); assay type: cell-based, hamster; conditions: mock infected BHK cells; MTT; 3 days; Table 2B
Protocol: (§3) To determine the cytotoxicity, cells were seeded at an initial density of 1×10^6 cells/mL in 96 well plates containing Minimum Essential Medium with Earles's salts (MEM-E), L-glutamine, 1 mM sodium pyruvate and 25 mg/L kanamycin, supplemented with 10% fetal bovine serum. Cell cultures were then incubated at 37° C. in a humidified 5% CO2 atmosphere in the absence or presence of serial dilutions of test compounds. Cell viability was determined by the MTT method.
as §2

[9] = Cytotoxicity in mock infected BHK-21 cells (MTT); assay type: cell-based, hamster; conditions: hamster
Protocol: as §3, §2

HCoV = test: Protection of MES-1 cells from virus-induced cytopathogenicity (MTT); assay type: cell-based; conditions: unidentified human coronavirus, 72 h, 50% protection of MES-1 cells, day 3 post-infection
Protocol: as §1

[10] = tested on: mock infected MES-1 cells; test: Cytotoxicity in mock infected MES-1 cells (MTT); assay type: cell-based; conditions: 3 days, Table 3B
Protocol: as §3

[11] = Cytotoxicity in mock infected MES-1 cells (MTT); assay type: cell-based; conditions: Table 3A
Protocol: as §3

HCV = conditions: HCV-infected subjects, cited from earlier work
SARS-CoV-2 (WA1) = test: microbe, parasite or virus in culture; assay type: cell-based; conditions: for EC90: Severe acute respiratory syndrome coronavirus 2, HAE
in vitro = conditions: human
HCoV-229E [12] = test: microbe, parasite or virus in culture; assay type: cell-based, human coronavirus alpha-229E; conditions: for EC50: Huh-7, read-out: Neutral Red Assay EC50
Huh-7 cells = conditions: human
[13] = BHK, 72 h, 50% protection of BHK cells, MTT, day 3 post-infection, Table 2A
[14] = BHK, 72 h, 50% protection of BHK cells, MTT, day 3 post-infection, Table 2B
[15] = mock infected BHK-21 cells, mock infected BHK cells, MTT, 3 days, Table 2A
[16] = read-out: Virus Yield Reduction Assay EC90
[17] = Human coronavirus 229E, Huh-7, read-out: Virus Yield Reduction Assay EC90

Nc1ccn([C@@H]2O[C@@](CO)(CCl)[C@@H](O)[C@H]2F)c(=O)n1 [ALS-8112]
ratio of triphosphate from Compound 1A vs. the named drug [1]: 5
ratio of triphosphate from Compound 1A vs. the named drug [2]: 3

C[C@@]1(F)[C@H](O)[C@@H](COP(=O)(O)OP(=O)(O)OP(=O)(O)O)O[C@H]1n1cnc2c(=O)[nH]c(N)nc21 [Compound 1-6]
Predicted Intracellular Triphosphate 1-6 Conc. at 12 hours Post-dose [3]: 0.62 µM and 0.91 µM and 0.98 µM
predicted human lung intracellular level at trough (12 h) relative to in vitro EC90 ([3]; 1100 mg LD + 550 mg BID, EC90 against SARS-CoV-2 in HAE cell cultures): above the in vitro EC90
Mean Intracellular Compound 1-6 Concentration ([4]; 15 h after washout): 560 µM
Mean Intracellular Compound 1-6 Concentration ([4]; 48 h after washout): 290 µM
half-life ([4]; intracellular triphosphate in bronchial cells after exposure to 10 μM Compound 1A): 39 h
half-life ([4]; intracellular triphosphate in bronchial epithelial cells after Compound 1A): over 1.5 days
half-life ([4]; intracellular triphosphate in bronchial epithelial cells after Compound 1A, listed as active triphosphate species): greater than 1.5 days
half-life ([5]; monkey kidney tissue): 8.0 h
trough (12 h) tissue level ([5]; monkey kidney): 57 ng/g
Mean Intracellular Compound 1-6 Concentration ([5]; monkey kidney, 12 h post last dose of Compound 2A): 0.13 µM
Mean Intracellular Compound 1-6 Concentration ([5]; monkey kidney, 24 h post last dose of Compound 2A): 0.032 µM
Mean Intracellular Compound 1-6 Concentration ([5]; monkey kidney, 48 h post last dose of Compound 2A): 0.004 µM
half-life ([5]; monkey liver tissue): 4.3 h
trough (12 h) tissue level ([5]; monkey liver): 43 ng/g
Mean Intracellular Compound 1-6 Concentration ([5]; monkey liver, 12 h post last dose of Compound 2A): 0.09 µM and 0.089 µM
Mean Intracellular Compound 1-6 Concentration ([5]; monkey liver, 24 h post last dose of Compound 2A): 0.021 µM
Mean Intracellular Compound 1-6 Concentration ([5]; monkey liver, 48 h post last dose of Compound 2A): Not Detected
half-life ([5]; monkey lung tissue): 9.4 h
trough (12 h) tissue level ([5]; monkey lung): 55 ng/g
Mean Intracellular Compound 1-6 Concentration ([5]; monkey lung, 12 h post last dose of Compound 2A): 0.14 µM
Mean Intracellular Compound 1-6 Concentration ([5]; monkey lung, 24 h post last dose of Compound 2A): 0.037 µM
Mean Intracellular Compound 1-6 Concentration ([5]; monkey lung, 48 h post last dose of Compound 2A): 0.009 µM
triphosphate concentration in the lung compared to the liver ([5]; monkey, 12-hour steady-state trough, oral Compound 2A 30 mg/kg BID): 1.6 fold
half-life ([6]; intracellular triphosphate in nasal cells after exposure to 10 μM Compound 1A): 38 h
half-life ([6]; intracellular triphosphate in nasal epithelial cells after Compound 1A): over 1.5 days
half-life ([6]; intracellular triphosphate in nasal epithelial cells after Compound 1A, listed as active triphosphate species): greater than 1.5 days
Mean Intracellular Compound 1-6 Concentration ([6]; nasal cells, 10 μM Compound 1A for 8 h, 24 h after washout): 170 µM
ratio of human to monkey hepatocyte triphosphate concentrations (human hepatocytes; assessed by AUC0-24 values): 7 fold and 7.0 fold
Mean Intracellular Compound 1-6 Concentration (human hepatocytes; incubation 2 h): 14 µM
Mean Intracellular Compound 1-6 Concentration (human hepatocytes; incubation 4 h): 22 µM
Mean Intracellular Compound 1-6 Concentration (human hepatocytes; incubation 8 h): 26 µM
Mean Intracellular Compound 1-6 Concentration (human hepatocytes; incubation 24 h): 17 µM
Mean Intracellular Compound 1-6 Concentration (monkey hepatocytes; incubation 2 h): 2.1 µM
Mean Intracellular Compound 1-6 Concentration (monkey hepatocytes; incubation 4 h): 3.1 µM
Mean Intracellular Compound 1-6 Concentration (monkey hepatocytes; incubation 8 h): 2.9 µM
Mean Intracellular Compound 1-6 Concentration (monkey hepatocytes; incubation 24 h): 1.7 µM

C[C@@]1(F)[C@H](O)[C@@H](CO)O[C@H]1n1cnc2c(=O)[nH]c(N)nc21 [Compound 1-7, 2-amino-9-((2R,3R,4R,5R)-3-fluoro-4-hydroxy-5-(hydroxymethyl)-3-methyltetrahydrofuran-2-yl)-1,9-dihydro-6H-purin-6-one]
Cmax [7]: 160 nM
Tmax [7]: 2 h
concentration at 12 h (in vivo): 39 ng/mL
AUC(0-t) (in vivo; 30 mg/kg): 0.47 µM·h
half-life (in vivo; 30 mg/kg): 17 h

CNc1nc(N)nc2c1ncn2[C@@H]1O[C@H](CO[P@](=O)(N[C@@H](C)C(=O)OC(C)C)Oc2ccccc2)[C@@H](O)[C@@]1(C)F [Compound 1B]
EC50 (HCoV-229E [8]; [13]): 2.5 µM
EC50 (HCoV-229E [8]; [14]): 2.9 µM
CC50 (mock infected BHK cells): > 100 µM
CC50 at 3 days [9, 15]: > 100 µM
EC50 (HCoV; Table 3A): 2 µM
EC50 (HCoV; Table 3B): 2.2 µM
CC50 [10]: > 100 µM
CC50 at 3 days [11]: > 100 µM

CNc1nc(N)nc2c1ncn2[C@@H]1O[C@H](CO[P@@](=O)(N[C@@H](C)C(=O)OC(C)C)Oc2ccccc2)[C@@H](O)[C@@]1(C)F [Compound 2A]
efficacy (HCV): high rate of efficacy
safety and tolerability (HCV; up to 12 weeks): safe and well-tolerated

O=c1nc(NO)ccn1[C@@H]1O[C@H](CO)[C@@H](O)[C@H]1O [N^4-hydroxycytidine, reference compound]
Selectivity Index (SARS-CoV-2 (WA1)): >5.1
EC90 (SARS-CoV-2 (WA1); read-out: EC90 of the single replicates): 4.7 µM
EC90 (SARS-CoV-2 (WA1); [16]): 3.9 µM
CC50 (in vitro): > 19 µM

CCN(CC)CCCC(C)Nc1ccnc2cc(Cl)ccc12 (stereo not drawn) [chloroquine, reference compound]
EC50 (HCoV-229E [12]; Human coronavirus 229E): 8.1 µM
EC90 (HCoV-229E [12]; [17]): < 0.05 µM
CC50 (Huh-7 cells): 21 µM

CCN(CCO)CCCC(C)Nc1ccnc2cc(Cl)ccc12 (stereo not drawn) [hydroxychloroquine, reference compound]
Selectivity Index (CC50/EC50) (HCoV-229E [12]): 3.5^c
EC50 (HCoV-229E [12]; Human coronavirus 229E): 7.4 µM
EC90 (HCoV-229E [12]; [17]): < 0.05 µM
EC90 (HCoV-229E [12]; [16]): < 0.048 µM
CC50 (Huh-7 cells): 26 µM

CC(C)OC(=O)[C@H](C)N[P@](=O)(OC[C@H]1O[C@@H](n2ccc(=O)[nH]c2=O)[C@](C)(F)[C@@H]1O)Oc1ccccc1 [sofosbuvir, reference compound]
EC50 (HCoV-229E [8]; [13]): > 100 µM
EC50 (HCoV-229E [8]; [14]): > 100 µM
EC50 (HCoV-229E [8]; BHK-21, HCoV-229E in BHK-21, dye staining, average of 2 experiments, Table 5): > 100 µM
CC50 (mock infected BHK cells): > 100 µM
CC50 at 3 days [9, 15]: > 100 µM
CC50 at 3 days ([9]; uninfected BHK-21 cells, BHK-21, Table 5): > 100 µM
EC50 (HCoV; Table 3A): > 100 µM
EC50 (HCoV; Table 3B): > 100 µM
CC50 [10]: > 100 µM
CC50 at 3 days [11]: > 100 µM
